How the values were obtained:
Format in all cases: in vivo, rat
[1] = test system: morphine self-administration; assay: intravenous morphine self-administration; settings: 18-methoxycoronaridine 1 mg/kg i.p., dextromethorphan 5 mg/kg s.c.
Experimental: Dextromethorphan hydrobromide (5 mg/kg; Sigma/RBI, St. Louis, Mo.) was dissolved in saline and injected subcutaneously 20 minutes before testing. Mecamylamine hydrochloride (1 mg/kg; Sigma/RBI, St. Louis, Mo.) was dissolved in physiological saline and injected intraperitoneally 30 minutes before testing. All rats received two injections. For rats that received a single drug, half of them also received the appropriate saline/vehicle injection corresponding to each of the other two drugs.
Naive female Long-Evans derived rats (250 g; Charles River, N.Y.) were maintained on a normal 12 h light cycle (lights on at 7:00 a.m., lights off at 7:00 p.m.). For all experiments the “Principles of Laboratory Animal Care” (NIH publication No. 85-23, revised 1985, which is hereby incorporated by reference) were followed.
The intravenous self-administration procedure described in Glick et al., “18-MC Reduces Methamphetamine and Nicotine Self-administration in Rats,” NeuroReport 11:2013-2015 (2000) (“Glick I”), which is hereby incorporated by reference, was employed. Briefly, responses on either of two levers (mounted 15 cm apart on the front wall of each operant test cage) were recorded on an IBM compatible computer with a Med Associates, Inc. interface. The intravenous self-administration system consisted of polyethylene-silicone cannulas constructed according to the design of Weeks, “Long-term Intravenous Infusion,” pp. 155-168 in Myers (ed.), Methods in Psychobiology, Vol. 2, New York: Academic Press (1972) (“Weeks”), which is hereby incorporated by reference; Instech harnesses and swivels; and Harvard Apparatus infusion pumps (#55-2222). Shaping of the bar-press response was initially accomplished by training rats to bar-press for water. Cannulas were then implanted in the external jugular vein according to procedures described in Weeks, which is hereby incorporated by reference. Self-administration testing began with a 16-h nocturnal session followed by daily 1-h sessions, 5 days (Monday-Friday) a week. A lever-press response produced a 10 μl infusion of drug solution (0.01 mg of morphine sulfate) in about 0.2 s or a 50 μl infusion of drug solution (0.025 mg of methamphetamine sulfate) in about 1 s. Since all rats generally weighed 250±20 g, each response delivered approximately 0.04 mg/kg of morphine or 0.1 mg/kg of methamphetamine. Experiments to assess the effects of experimental treatments were begun when baseline self-administration rates stabilized (≦10% variation from one day to the next across 5 days), usually after 2 weeks of testing.
Each data point represents the mean (±S.E.M.) percent of baseline of 6-8 rats. Significant differences between baseline and treatment are indicated by an asterisk (paired t-test, P<0.01-0.001).
Each data point represents the mean (±S.E.M.) percent of baseline of 5-8 rats. Significant differences between baseline and treatment are indicated by an asterisk (paired t-test), P<0.05-0.01).

[2] = test system: methamphetamine self-administration; assay: intravenous methamphetamine self-administration
[3] = test system: nicotine self-administration; assay: nicotine self-administration; settings: Example 7, FIGS. 11-12: mecamylamine 0.1 mg/kg i.p., 18-methoxycoronaridine 0.5 mg/kg i.p., dextromethorphan 0.5 mg/kg s.c., bupropion 5 mg/kg i.p.; 5-8 rats
[4] = Example 6, FIG. 8: mecamylamine 1 mg/kg i.p., bupropion 5 mg/kg i.p., 5-8 rats
[5] = Example 6, FIG. 9: mecamylamine 1 mg/kg i.p., 18-methoxycoronaridine 5 mg/kg i.p., dextromethorphan 10 mg/kg s.c., bupropion 10 mg/kg i.p., 5-9 rats

Row | Structure (SMILES) | effect on morphine self-administration (percent of baseline) [1, 4] | effect on methamphetamine self-administration (percent of baseline) [2, 5] | effect on nicotine self-administration (percent of baseline) [3] | effect on morphine self-administration (percent of baseline) ([1]; Example 5, FIG. 5: mecamylamine 1 mg/kg i.p., 6-8 rats) | effect on methamphetamine self-administration (percent of baseline) ([2]; Example 5, FIG. 6: mecamylamine 1 mg/kg i.p., 18-methoxycoronaridine 2 mg/kg i.p., dextromethorphan 5 mg/kg s.c., 6-7 rats)
1 | CC(NC(C)(C)C)C(=O)c1cccc(Cl)c1 (stereo not drawn) [bupropion, m-chloro-α-tert-butylaminopropiophenone] | none of the drugs administered alone, significantly decreased | none of the drugs administered alone, significantly decreased | none of the drugs administered alone, significantly decreased | – | –
2 | COc1ccc2c(c1)[C@]13CCCC[C@@H]1[C@H](C2)N(C)CC3 [dextromethorphan] | none of the drugs administered alone, significantly decreased | none of the drugs administered alone, significantly decreased | none of the drugs administered alone, significantly decreased | none of the drugs administered alone, significantly decreased | none of the drugs administered alone, significantly decreased

From US6780871B2, “Methods and compositions for treating addiction disorders” (Albany Medical College, priority 2001, dated 2004)
